Experimental data published in patent publication US6737383B1, “Herbicidal oxadiazolidines” (priority 1999, dated 2004).

Tests used:
bedstraw = assay: Test B pre/postemergence bedstraw; assay type: in vivo, Galium aparine; conditions: Postemergence
In short: (§1)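 Response is a visual 0-to-10 score relative to untreated plants, where 0 means no effect and 10 means complete control, taken twelve to sixteen days after application. Treatments went onto soil at planting and onto foliage of 1- to 4-leaf plants, using a surfactant-containing non-phytotoxic solvent.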

blackgrass = assay: Test B pre/postemergence blackgrass; assay type: in vivo, Alopecurus myosuroides
In short: as §1

surinam grass = assay: Test B pre/postemergence surinam grass; assay type: in vivo, Brachiaria decumbens
In short: as §1

cocklebur = assay: Test B pre/postemergence cocklebur; assay type: in vivo, Xanthium strumarium
In short: as §1

corn = assay: Test B pre/postemergence corn; assay type: in vivo, Zea mays
In short: as §1

crabgrass = assay: Test B pre/postemergence crabgrass; assay type: in vivo, Digitaria sanguinalis
In short: as §1

giant foxtail = assay: Test B pre/postemergence giant foxtail; assay type: in vivo, Setaria faberii
In short: as §1

morningglory = assay: Test B pre/postemergence morningglory; assay type: in vivo, Ipomoea hederacea
In short: as §1

pigweed = assay: Test B pre/postemergence pigweed; assay type: in vivo, Amaranthus retroflexus
In short: as §1

rape = assay: Test B pre/postemergence rape; assay type: in vivo, Brassica napus
In short: as §1

soybean = assay: Test B pre/postemergence soybean; assay type: in vivo, Glycine max
In short: as §1

sugar beet = assay: Test B pre/postemergence sugar beet; assay type: in vivo, Beta vulgaris
In short: as §1

velvetleaf = assay: Test B pre/postemergence velvetleaf; assay type: in vivo, Abutilon theophrasti
In short: as §1

wheat = assay: Test B pre/postemergence wheat; assay type: in vivo, Triticum aestivum
In short: as §1

wild oat = assay: Test B pre/postemergence wild oat; assay type: in vivo, Avena fatua
In short: as §1

purple nutsedge = assay: Test B pre/postemergence purple nutsedge; assay type: in vivo, Cyperus rotundus
In short: as §1

rice = assay: Test B flood test rice; assay type: in vivo, Oryza sativa
In short: (§2)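 Each value is a visual injury score relative to controls, with 10 meaning complete control and 0 no effect. Evaluation took place twelve to sixteen days after the 2-leaf-stage plants were treated and kept in the greenhouse.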

smallflower flatsedge = assay: Test B flood test smallflower flatsedge; assay type: in vivo, Cyperus difformis
In short: as §2

duck salad = assay: Test B flood test duck salad; assay type: in vivo, Heteranthera limosa
In short: as §2

bamyardgrass = assay: Test B flood test barnyardgrass; assay type: in vivo, Echinochloa crus-galli
In short: as §2

[1] = Postemergence, Rate 125 g/ha, scale 0 to 10, 0 is no effect, 10 is complete control
[2] = Postemergence, Rate 250 g/ha, scale 0 to 10
[3] = Postemergence, Rate 500 g/ha, scale 0 to 10, 0 is no effect, 10 is complete control
[4] = Preemergence, Rate 62 g/ha, scale of 0 to 10 where 0 is no effect and 10 is complete control
[5] = Preemergence, Rate 125 g/ha, scale 0 to 10, 0 is no effect, 10 is complete control
[6] = Preemergence, Rate 250 g/ha, scale 0 to 10, 0 is no effect, 10 is complete control
[7] = Preemergence, Rate 500 g/ha, scale 0 to 10, 0 is no effect, 10 is complete control
[8] = Rate 62 g/ha, Postemergence, scale 0 to 10 (0 no effect, 10 complete control)
[9] = Rate 62 g/ha, flood test species, Pre-emergence, visual evaluation after twelve to sixteen days
[10] = Rate 125 g/ha, under heading Pre-emergence, flood test species, visual evaluation after twelve to sixteen days
[11] = Rate 250 g/ha, Pre-emergence (flood test species), scale 0 to 10, 0 is no effect, 10 is complete control
[12] = Rate 500 g/ha, Pre-emergence section of Table B, 0 to 10 scale (0 no effect, 10 complete control)

CC(C)C(=O)Cn1c(=O)on(C(=O)N(c2ccc(Cl)cc2)C(C)C)c1=O [Compound 487]
Bedstraw plant response rating (bedstraw; Rate 125 g/ha, scale 0 to 10, 0 is no effect, 10 is complete control): 2
Bedstraw plant response rating (bedstraw; Rate 250 g/ha, scale 0 to 10): 6
Plant response rating, Bedstraw (bedstraw; Rate 500 g/ha, scale 0 to 10, 0 is no effect, 10 is complete control): 6
Bedstraw plant response rating (bedstraw; Rate 62 g/ha, scale 0 to 10 (0 no effect, 10 complete control)): 0
Blackgrass plant response rating (blackgrass; [1]): 0
Blackgrass plant response rating (blackgrass; [2]): 0
Plant response rating, Blackgrass (blackgrass; [3]): 1
Plant response rating, Blackgrass (blackgrass; [4]): 2
Blackgrass plant response rating (blackgrass; [5]): 3
Blackgrass plant response rating (blackgrass; [6]): 7
Blackgrass plant response rating (blackgrass; [7]): 9
Blackgrass plant response rating (blackgrass; [8]): 0
B. signalgrass plant response rating (surinam grass; [1]): 0
B. signalgrass plant response rating (surinam grass; Postemergence, Rate 250 g/ha, scale 0 to 10, 0 no effect, 10 complete control): 0
Plant response rating, B. signalgrass (surinam grass; [3]): 0
Plant response rating, B. signalgrass (surinam grass; [4]): 3
B. signalgrass plant response rating (surinam grass; [5]): 3
B. signalgrass plant response rating (surinam grass; [6]): 3
B. signalgrass plant response rating (surinam grass; [7]): 5
B. signalgrass plant response rating (surinam grass; [8]): 0
Cocklebur plant response rating (cocklebur; [1]): 0
Cocklebur plant response rating (cocklebur; [2]): 0
Plant response rating, Cocklebur (cocklebur; [3]): 0
Plant response rating, Cocklebur (cocklebur; [4]): 0
Cocklebur plant response rating (cocklebur; [6]): 0
Cocklebur plant response rating (cocklebur; [7]): 0
Cocklebur plant response rating (cocklebur; [8]): 0
Corn plant response rating (corn; [1]): 0
Corn plant response rating (corn; [2]): 0
Plant response rating, Corn (corn; [3]): 0
Plant response rating, Corn (corn; [4]): 0
Corn plant response rating (corn; [5]): 0
Corn plant response rating (corn; [7]): 0
Corn plant response rating (corn; [8]): 0
Crabgrass plant response rating (crabgrass; [1]): 3
Crabgrass plant response rating (crabgrass; [2]): 5
Plant response rating, Crabgrass (crabgrass; [3]): 5
Plant response rating, Crabgrass (crabgrass; [4]): 6
Crabgrass plant response rating (crabgrass; [5]): 9
Crabgrass plant response rating (crabgrass; [7]): 10
Crabgrass plant response rating (crabgrass; [8]): 0
Giant foxtail plant response rating (giant foxtail; [1]): 2
Plant response rating, Giant foxtail (giant foxtail; [3]): 8
Plant response rating, Giant foxtail (giant foxtail; [4]): 9
Giant foxtail plant response rating (giant foxtail; [5]): 9
Giant foxtail plant response rating (giant foxtail; [7]): 10
Giant foxtail plant response rating (giant foxtail; [8]): 0
Morningglory plant response rating (morningglory; [1]): 10
Plant response rating, Morningglory (morningglory; [3]): 10
Plant response rating, Morningglory (morningglory; [4]): 0
Morningglory plant response rating (morningglory; [5]): 0
Morningglory plant response rating (morningglory; [7]): 0
Morningglory plant response rating (morningglory; [8]): 2
Redroot pigweed plant response rating (pigweed; [1]): 2
Plant response rating, Redroot pigweed (pigweed; [3]): 3
Plant response rating, Redroot pigweed (pigweed; [4]): 1
Redroot pigweed plant response rating (pigweed; [5]): 8
Redroot pigweed plant response rating (pigweed; [7]): 10
Redroot pigweed plant response rating (pigweed; [8]): 0
Rape plant response rating (rape; [1]): 0
Plant response rating, Rape (rape; [3]): 3
Plant response rating, Rape (rape; [4]): 0
Rape plant response rating (rape; [5]): 0
Rape plant response rating (rape; [7]): 0
Rape plant response rating (rape; [8]): 0
Soybean plant response rating (soybean; [1]): 4
Plant response rating, Soybean (soybean; [3]): 5
Plant response rating, Soybean (soybean; [4]): 0
Soybean plant response rating (soybean; [5]): 0
Soybean plant response rating (soybean; [7]): 0
Soybean plant response rating (soybean; [8]): 3
Sugarbeets plant response rating (sugar beet; [1]): 0
Plant response rating, Sugarbeets (sugar beet; [3]): 0
Plant response rating, Sugarbeets (sugar beet; [4]): 0
Sugarbeets plant response rating (sugar beet; [5]): 0
Sugarbeets plant response rating (sugar beet; [7]): 0
Sugarbeets plant response rating (sugar beet; [8]): 0
Velvetleaf plant response rating (velvetleaf; [1]): 0
Plant response rating, Velvetleaf (velvetleaf; [3]): 2
Plant response rating, Velvetleaf (velvetleaf; [4]): 0
Velvetleaf plant response rating (velvetleaf; [5]): 0
Velvetleaf plant response rating (velvetleaf; [7]): 0
Wheat plant response rating (wheat; [1]): 0
Plant response rating, Wheat (wheat; [3]): 0
Plant response rating, Wheat (wheat; [4]): 0
Wheat plant response rating (wheat; [5]): 0
Wheat plant response rating (wheat; [7]): 0
Wheat plant response rating (wheat; [8]): 0
Wild oats plant response rating (wild oat; [1]): 0
Plant response rating, Wild oats (wild oat; [3]): 0
Plant response rating, Wild oats (wild oat; [4]): 0
Wild oats plant response rating (wild oat; [5]): 0
Wild oats plant response rating (wild oat; [7]): 6
Wild oats plant response rating (wild oat; [8]): 0
Nutsedge plant response rating (purple nutsedge; [1]): 0
Plant response rating, Nutsedge (purple nutsedge; [3]): 0
Plant response rating, Nutsedge (purple nutsedge; [4]): 0
Nutsedge plant response rating (purple nutsedge; [5]): 0
Nutsedge plant response rating (purple nutsedge; [7]): 0
Nutsedge plant response rating (purple nutsedge; [8]): 0
Plant response rating, Rice (0 to 10 scale, 0 is no effect, 10 is complete control) (rice; [9]): 0
Rice plant response rating (0 to 10 scale, 0 is no effect, 10 is complete control) (rice; [10]): 0
Rice plant response rating (rice; [11]): 0
Rice plant response rating (rice; [12]): 0
Plant response rating, S. Flatsedge (0 to 10 scale, 0 is no effect, 10 is complete control) (smallflower flatsedge; [9]): 0
S. Flatsedge plant response rating (0 to 10 scale, 0 is no effect, 10 is complete control) (smallflower flatsedge; [10]): 0
S. Flatsedge plant response rating (smallflower flatsedge; [11]): 0
S. Flatsedge plant response rating (smallflower flatsedge; [12]): 0
Plant response rating, Ducksalad (0 to 10 scale, 0 is no effect, 10 is complete control) (duck salad; [9]): 0
Ducksalad plant response rating (0 to 10 scale, 0 is no effect, 10 is complete control) (duck salad; [10]): 0
Ducksalad plant response rating (duck salad; [11]): 0
Ducksalad plant response rating (duck salad; [12]): 0
Plant response rating, Barnyardgrass (0 to 10 scale, 0 is no effect, 10 is complete control) (bamyardgrass; [9]): 0
Barnyardgrass plant response rating (0 to 10 scale, 0 is no effect, 10 is complete control) (bamyardgrass; [10]): 0
Barnyardgrass plant response rating (bamyardgrass; [11]): 0
Barnyardgrass plant response rating (bamyardgrass; [12]): 0
